“Also recorded” adds a separate entry of the source. Where two headings read alike, the source gives them in different places.
Key:
[1] = system: pp28-luciferase Towne CMV; assay: microbe, parasite or virus in culture; type: cell-based, human cytomegalovirus; details: for inhibition of late pp28 gene expression (luciferase activity): 72 hpi; for difference in SI versus parent alcohol: 838 vs 606, 832-4 vs 760; for EC50: Human betaherpesvirus 5; for SI (selectivity index, ratio of CC50 to EC50): CC50 in HFF / anti-CMV EC50
From the text: The pp28-luciferase Towne strain was constructed as previously described. Briefly, the recombinant virus, which expresses luciferase under the control of UL99 (pp28) late promoter was generated by insertion of the reporter gene between the US9 and US10 open reading frames (ORFs) in the Towne genome. […] The ganciclovir (GCV)-resistant strain was obtained from a patient with CMV disease. […] This clinical isolate was provided by the clinical virology laboratory with no identifiers that can link to a specific subject. The Johns Hopkins Office of Human Subject Research Institutional Review Board determined that this research qualified for an exemption.
(§1) Human Foreskin Fibroblasts (HFF) passage 12–16 (ATCC, CRL-2088™) were grown in Dulbecco's Modified Eagle Medium (DMEM) containing 10% fetal bovine serum (Gibco, Carlsbad, CA) in a 5% CO2 incubator at 37°C and used for infections with pp28-luciferase Towne CMV or the GCV-resistant strain. One day prior to infection with the pp28-luciferase, 4×10^4 HFF cells were seeded on each well of 24-well tissue culture plates. Infection was carried out at multiplicity of infection of 1 PFU/cell (MOI = 1). Following 90 minute adsorption, media containing virus was removed and replaced by DMEM with 4% fetal bovine serum (Gibco, Carlsbad, CA) containing anti-viral compounds. The concentration of each compound was calculated and adjusted by volume such that it was constant throughout the experiment.
(§2) Infected and treated HFF cells were collected 72 hpi and washed once with PBS. The lysates were assayed for luciferase and cell viability using a Luciferase Assay Kit (Promega, Madison, WI) and CellTiter-Glo Luminescent Cell Viability Assay Kit, respectively, on GloMax®-Multi+ Detection System (Promega) according to manufacturer's instructions.

[2] = CellTiter-Glo Luminescent Cell Viability assay in HFF; type: cell-based; details: human
Experimental: as §1, §2

HFF = assay: as above; type: cell-based
Experimental: as §1, §2

[3] = system: GCV-resistant CMV strain (UL97 mutation H520Q); assay: Plaque reduction assay, GCV-resistant CMV strain; type: cell-based, human cytomegalovirus; details: for inhibition of plaque formation, GCV-resistant CMV strain: 0.1 µM, plaques counted 21 days after infection
From the text: The pp28-luciferase Towne strain was constructed as previously described. Briefly, the recombinant virus, which expresses luciferase under the control of UL99 (pp28) late promoter was generated by insertion of the reporter gene between the US9 and US10 open reading frames (ORFs) in the Towne genome. […] We have recently reported that the pp28-luciferase reporter system is sensitive, reproducible and highly correlates with plaque reduction. The ganciclovir (GCV)-resistant strain was obtained from a patient with CMV disease. […] This clinical isolate was provided by the clinical virology laboratory with no identifiers that can link to a specific subject. The Johns Hopkins Office of Human Subject Research Institutional Review Board determined that this research qualified for an exemption.
Human lung fibroblasts (HEL) passage 8–12 (ATCC, CCL-137™) were grown in DMEM containing 10% fetal bovine serum. One day prior to infection, 3×10^5 cells were seeded on each well of 12-well tissue culture plates. GCV-resistant CMV was diluted in DMEM to a desired concentration which gave around 100 plaques per well and added to each well in duplicates. Plates were incubated for 90 minutes with shaking every 10 min; thereafter drugs were added and a methylcellulose overlay applied to each well. After incubation for 21 days, cells were stained with crystal violet and plaques were counted under microscope at 40× magnification.

[4] = system: HeLa (cervical adenocarcinoma); assay: MTT cancer cell growth assay, HeLa; type: cell-based, human; details: for CC50: read-out: CC50 HeLa
Experimental: (§3) HeLa (Human Cervical Adenocarcinoma), HCT116 (Human Colorectal Carcinoma) and 1205Lu (Human Melanoma) cells (all from ATCC) were maintained in DMEM containing 10% fetal bovine serum. 12–16 hours prior to drug treatment, 3×10^3 to 5×10^3 cells were seeded on each well of 96-well tissue culture plates. Drugs were diluted in DMEM containing 10% fetal bovine serum and applied to the cells. 72 hours after drug treatment, 20 µl of MTT solution (5 mg/ml in PBS) was added into each well, followed by shaking the plates at 150 rpm for 5 minutes and an incubation of 4 hours (37°C, 5% CO2). Media was removed, plates dried and each well was resuspended in 100 µl MTT formazan/DMSO. The absorbance of each well was recorded at 560 nm on GloMax®-Multi+ Detection System (Promega).

1205Lu (melanoma) = assay: MTT cancer cell growth assay, 1205Lu; type: cell-based, human; details: for CC50: read-out: CC50 1205Lu
Experimental: as §3

[5] = system: HCT116 (colorectal carcinoma); assay: MTT cancer cell growth assay, HCT116; type: cell-based, human; details: for CC50: read-out: CC50 HCT116
Experimental: as §3

[6] = Homo sapiens, HeLa, MTT 72 hr after treatment
[7] = Homo sapiens, 1205Lu, MTT 72 hr after treatment
[8] = Homo sapiens, HCT-116, MTT 72 hr after treatment
[9] = HFF, 72 h, measured at 1 µM to 100 µM, read-out: CC50

In the case of `CC1CCC2C(C)C(CC(CSc3cccc(COC(=O)N(C)C)c3)CC3OC4OC5(C)CCC6C(C)CCC(C3C)C46OO5)OC3OC4(C)CCC1C32OO4` (centres unmarked) [800-3, Dimer isobu-SPh-3-CH2OC(O)NMe2], the “inhibition of late pp28 gene expression (luciferase activity)” value (“inhibition of late pp28 gene expression” for short) ([1]; 0.1 µM) is reported as “not active” and the “inhibition of late pp28 gene expression” value ([1]; 0.3 µM) is reported as “active”.
With `CC1CCC2C(C)C(CC(CSc3ccc(COC(=O)N(C)C)cc3)CC3OC4OC5(C)CCC6C(C)CCC(C3C)C46OO5)OC3OC4(C)CCC1C32OO4` (centres unmarked) [800-4, Dimer isobu-SPh-4-CH2OC(O)NMe2] the “inhibition of late pp28 gene expression” value ([1]; 0.1 µM) was “not active” and the “inhibition of late pp28 gene expression” value ([1]; 0.3 µM) was “active”.
In the case of `CC1CCC2C(C)C(CC(CC3OC4OC5(C)CCC6C(C)CCC(C3C)C46OO5)CS(=O)(=O)c3cccc(COC(=O)N(C)C)c3)OC3OC4(C)CCC1C32OO4` (centres unmarked) [832-3, Dimer isobu-SO2Ph-3-CH2OC(O)NMe2], the “inhibition of late pp28 gene expression” value ([1]; 0.1 µM) is reported as “not active” and the “inhibition of late pp28 gene expression” value ([1]; 0.3 µM) is reported as “active”.
With `CC1CCC2C(C)C(CC(CC3OC4OC5(C)CCC6C(C)CCC(C3C)C46OO5)CS(=O)(=O)c3ccc(COC(=O)N(C)C)cc3)OC3OC4(C)CCC1C32OO4` (centres unmarked) [832-4, Dimer isobu-SO2Ph-4-CH2OC(O)NMe2] the “effectiveness in CMV inhibition versus monomer 551” value [1] was “at least 150 fold”, the “inhibition of late pp28 gene expression” value ([1]; 0.1 µM) was “highly inhibitory” and the “difference in SI versus parent alcohol” value [1] was 30 fold. For the same compound, the EC50 [1] was 70 ± 4 nM, the CC50 at 72 h [2] was 57.5 ± 2.9 µM and the “cellular toxicities at concentrations of complete CMV inhibition” value (HFF) was “not observed”. For the same compound, the “inhibition of plaque formation, GCV-resistant CMV strain” value [3] was “fully inhibited”, the CC50 [4, 6] was 270 ± 30 nM and the CC50 (1205Lu (melanoma); [7]) was 130 ± 7 nM. For the same compound, the CC50 [5, 8] was 70 ± 6 nM.
In the case of `C[C@H]1[C@@H](CCC(=O)Nc2ccc(F)cc2)O[C@@H]2OC3(C)CC[C@H]4[C@H](C)CC[C@@H]1[C@@]24OO3` [Artefanilide], the CC50 (HFF) is reported as 44.9 ± 3.4 µM, the CC50 ([4]; MTT 72 hr after treatment) is reported as over 50000 nM and the CC50 (1205Lu (melanoma); MTT 72 hr after treatment) is reported as over 50000 nM. For the same compound, the CC50 ([5]; MTT 72 hr after treatment) was 40000 ± 7900 nM.
In the case of `Nc1nc(O)c2ncn(COC(CO)CO)c2n1` [GCV, Ganciclovir, reference compound], the “inhibition of late pp28 gene expression” value ([1]; 0.1 µM) is reported as “no inhibition at all”, the “SI (selectivity index, ratio of CC50 to EC50)” value [1] is reported as 96±14 and the EC50 [1] is reported as 2700 ± 100 nM. The CC50 at 72 h [2, 9] was 247 ± 33.4 µM, the “plaque formation, GCV-resistant CMV strain” value ([3]; GCV at 5 µM, 21 days) was “obvious resistance” and the EC50 ([3]; Human betaherpesvirus 5, read-out: EC50 of GCV for the GCV-resistant strain) was 7.6 µM. The CC50 [4, 6] was over 50000 nM, the CC50 (1205Lu (melanoma); [7]) was over 50000 nM and the CC50 [5, 8] was over 50000 nM.
For `C[C@H]1[C@H](OC(=O)CCC(=O)O)O[C@@H]2O[C@@]3(C)CC[C@H]4[C@H](C)CC[C@@H]1[C@@]24OO3` [artesunate, Artesunate, reference compound], the “SI (selectivity index, ratio of CC50 to EC50)” value [1] was 11±0.9, the EC50 [1] was 6600 ± 400 nM and the CC50 at 72 h [2, 9] was 71.7 ± 4 µM. It also gave a CC50 [4, 6] of 7100 ± 400 nM, a CC50 (1205Lu (melanoma); [7]) of 42000 ± 2400 nM and a CC50 [5, 8] of 11300 ± 600 nM.
For `CC1CCC2C(C)C(CCCS(=O)(=O)c3ccc(COC(=O)N(C)C)cc3)OC3OC4(C)CCC1C32OO4` (centres unmarked) [compound 551, Art-PrSO2Ph-4-CH2OC(O)NMe2], the “inhibition of late pp28 gene expression” value ([1]; 1 µM) was “did not”.
For `CC1CCC2C(C)C(CC(CO)CC3OC4OC5(C)CCC6C(C)CCC(C3C)C46OO5)OC3OC4(C)CCC1C32OO4` (centres unmarked) [compound 606, Dimer isobu-OH], the “SI (selectivity index, ratio of CC50 to EC50)” value [1] was 292±21, the EC50 [1] was 160 ± 8 nM and the CC50 at 72 h [2] was 48.1 ± 2.6 µM. For the same compound, the CC50 [4, 6] was 1060 ± 200 nM, the CC50 (1205Lu (melanoma); [7]) was 4900 ± 40 nM and the CC50 [5, 8] was 100 ± 1 nM.
With `CC1CCC2C(C)C(CC(CC3OC4OC5(C)CCC6C(C)CCC(C3C)C46OO5)CS(=O)(=O)c3ccc(CO)cc3)OC3OC4(C)CCC1C32OO4` (centres unmarked) [compound 760, Dimer isobu-SO2Ph-4-CH2OH] the “SI (selectivity index, ratio of CC50 to EC50)” value [1] was 34.5±2, the EC50 [1] was 140 ± 8 nM and the CC50 at 72 h [2] was 4.9 ± 0.2 µM. For the same compound, the CC50 [4, 6] was 560 ± 180 nM, the CC50 (1205Lu (melanoma); [7]) was 100 ± 6 nM and the CC50 [5, 8] was 70 ± 5 nM.
With `CC1CCC2C(C)C(CC(COP(=O)(Oc3ccccc3)Oc3ccccc3)CC3OC4OC5(C)CCC6C(C)CCC(C3C)C46OO5)OC3OC4(C)CCC1C32OO4` (centres unmarked) [compound 838, Dimer isobu-OP(O)(OPh)2] the SI versus artesunate [1] was 134 fold, the “anti-CMV potency versus artesunate (using EC50 values)” value [1] was 165 fold and the “inhibition of late pp28 gene expression” value ([1]; 0.1 µM) was “highly inhibitory”. For the same compound, the “difference in SI versus parent alcohol” value [1] was 5 fold, the EC50 [1] was 40 ± 3 nM and the CC50 at 72 h [2, 9] was 55.8 ± 2.8 µM. For the same compound, the “cellular toxicities at concentrations of complete CMV inhibition” value (HFF; HFF) was “not observed”, the “inhibition of plaque formation, GCV-resistant CMV strain” value [3] was “fully inhibited; also recorded: highly active” and the “potency in inhibiting growth versus artesunate, HeLa” value [4] was 37 fold. For the same compound, the CC50 ([4]; Homo sapiens, HeLa, 72 h) was 190 ± 80 nM, the “potency in inhibiting growth versus artesunate, 1205Lu” value (1205Lu (melanoma)) was “at least 200 fold” and the CC50 (1205Lu (melanoma); Homo sapiens, 1205Lu, 72 h) was 60 ± 2 nM. For the same compound, the “potency in inhibiting growth versus artesunate, HCT116” value [5] was “at least 200 fold” and the CC50 ([5]; Homo sapiens, HCT-116, 72 h) was 40 ± 5 nM.

From paper PMC3164168 (PLoS ONE, 2011)
